{
  "source": "patent US20050020580A1",
  "about": "“Materials and methods for the prevention or treatment of apoptosis and apoptosis-related diseases and conditions” (priority 2002, published 2005)",
  "key": {"[1]": {"experiment": "Mouse pharmacokinetic studies: plasma drug concentrations by LC/MS/MS", "assay_type": "in vivo, mice (BALB/C)", "settings": "oral", "experimental": "Administration of PI for Experimental Protocols: Six to eight-week-old BALB/C mice (Jackson Labs, Bar Harbor, Me.) were acclimatized for one week before receiving either control vehicle or PI by gavage. PIs were prepared by dissolving 1% weight per volume carboxymethylcellulose and 15 mg/mL Nelfinavir (NFV) oral powder (commercial preparation, Agouron Laboratories, La Jolla, Calif.) in 2% ethanol in distilled water. […] The PI mixture was administered every 8 hours for the indicated number of doses and mice were either sacrificed for pharmacokinetic studies or treated as described. Histopathology was performed by a consulting veterinary pathologist who was blinded as to the nature of experimental treatments.\nImmediately preceding the fourth dose and every two hours post gavage until hour 8, plasma drug concentrations were assayed. At both doses, NFV was undetectable (i.e. <2.5 ng/mL) 6 hours after dosing.\nDrug levels were assessed in two mice each for several time-points. NFV levels were 8172 and 8914 ng/mL at 1 hour, 5999 and 6006 ng/mL at 2 hours, 5559 and 6048 ng/mL at 3 hours, and 4005 to 4217 ng/mL at 4 hours post-dosing."}, "[2]": {"experiment": "NFV and RIT concentrations in brain tissues of mice given NFV/RIT suspension", "assay_type": "in vivo", "settings": "3 doses of NFV/RIT suspension, whole brain removed immediately preceding the fourth dose, two mice; for concentration at 8 h: C57BL/6, mouse, brain, oral", "experimental": "Supernatants were then analyzed as described herein for drug level determination. […] Given the significant drug levels achieved in the brains of these mice, the effects of PI in a mouse model of stroke could be examined."}, "[3]": {"test_system": "Eschericheria coli", "experiment": "Minimal inhibitory concentration (MIC), NCCLS guidelines", "assay_type": "cell-based", "settings": "five clinical isolates"}, "[4]": {"test_system": "Jurkat T cells", "experiment": "Fas signaling in Jurkat T cells stimulated with CH-11 anti-Fas antibody", "assay_type": "cell-based", "source_text": "Annexin-V and Propidium Iodide Staining. […] Western Blot Analysis. […] Fluorometric Caspase 8 and 3 Activity."}, "[5]": {"test_system": "hepatocytes", "experiment": "Fas signaling ex vivo in hepatocytes from mice challenged with IV Jo-2", "settings": "hepatocytes from pretreated mice", "experimental": "Hepatocyte isolation: Four hours after treatment with 7.5 μg of Jo-2 antibody, mice were euthanized with pentobarbital (60 mg/kg, Abbott), and hepatocytes isolated via a two-step collagenase digestion (Seglen, P. O. Methods Cell Biol 13, 29-83, 1976). Following red cell lysis, hepatocytes were enumerated and evaluated for loss of ΔΨm, and caspase 8 and 3 activity. Fluorometric Caspase 8 and 3 Activity."}, "[6]": {"test_system": "wild type yeast", "experiment": "Yeast clonogenic assay of apoptosis (Vpr peptide or H2O2)", "assay_type": "cell-based, Saccharomyces cerevisiae", "settings": "varying doses"}, "[7]": {"test_system": "PTPC", "experiment": "PTPC proteoliposomes, 4-MUP fluorescence release", "assay_type": "biochemical, rat", "settings": "increasing doses of NFV", "experimental": "Liposome technology: PTPC (1 mg/ml) was separated from rat brains and ANT (0.1 mg/ml) from rat heart mitochondria as previously described (Brenner, C. et al. Methods Enzymol 322, 243-52, 2000; Marzo, I. et al. Biomed Pharmacother 52, 248-51, 1998). Immediately after purification, pure proteins were reconstituted into proteoliposomes (phosphatidylcholin/cholesterol [5:1;w:w] for PTPC and phosphatidylcholin/cardiolipin [45:1; w:w] for ANT) (Belzacq, A. S. et al. Cancer Res 63, 541-6, 2003). […] S. et al. Cancer Res 63, 541-6, 2003). 25 μl of proteoliposomes were incubated with the indicated agents (30 min for NFV and 60 min for ATR and Vpr52-96 at RT). […] The release of 4-MU was measured by spectrofluorimetry (excitation wave length 360 nm; emission wave length 450 nm). The maximum 4-MUP release was determined by adding 5% Triton X-100 to proteoliposomes. The percentage of 4-MUP release induced by treatment of liposomes by ATR was determined as [(ATR−treated liposomes fluorescence−untreated liposomes fluorescence)/(TX-100-treated liposomes fluorescence−untreated liposomes fluorescence)]×100. The maximal fluorescence induced by 800 μM ATR was then identified as 100% 4-MUP release and the fluorescence induced by the treatment of liposomes by another product or another dose was calculated as a percentage of ATR-induced 4-MUP release."}, "[8]": {"biological_target": "T1, ANT (Rattus norvegicus, UniProt Q05962)", "T1 construct": "ANT (0.1 mg/ml) from rat heart mitochondria; from tissue; host or cells: rat heart mitochondria", "T1 sequence (Q05962 1-298)": "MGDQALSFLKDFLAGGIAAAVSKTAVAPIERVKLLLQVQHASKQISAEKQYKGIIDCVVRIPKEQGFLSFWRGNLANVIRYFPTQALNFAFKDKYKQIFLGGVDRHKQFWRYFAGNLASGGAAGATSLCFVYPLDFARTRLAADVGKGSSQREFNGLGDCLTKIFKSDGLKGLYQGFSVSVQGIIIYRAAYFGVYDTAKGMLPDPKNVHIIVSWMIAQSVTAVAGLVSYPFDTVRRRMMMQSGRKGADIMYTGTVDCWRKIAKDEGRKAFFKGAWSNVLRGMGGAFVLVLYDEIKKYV", "experiment": "ANT proteoliposomes, 4-MUP fluorescence release", "assay_type": "biochemical", "settings": "p<0.05", "experimental": "Liposome technology: PTPC (1 mg/ml) was separated from rat brains and ANT (0.1 mg/ml) from rat heart mitochondria as previously described (Brenner, C. et al. Methods Enzymol 322, 243-52, 2000; Marzo, I. et al. Biomed Pharmacother 52, 248-51, 1998). Immediately after purification, pure proteins were reconstituted into proteoliposomes (phosphatidylcholin/cholesterol [5:1;w:w] for PTPC and phosphatidylcholin/cardiolipin [45:1; w:w] for ANT) (Belzacq, A. S. et al. Cancer Res 63, 541-6, 2003). […] The release of 4-MU was measured by spectrofluorimetry (excitation wave length 360 nm; emission wave length 450 nm). The maximum 4-MUP release was determined by adding 5% Triton X-100 to proteoliposomes. The percentage of 4-MUP release induced by treatment of liposomes by ATR was determined as [(ATR−treated liposomes fluorescence−untreated liposomes fluorescence)/(TX-100-treated liposomes fluorescence−untreated liposomes fluorescence)]×100. The maximal fluorescence induced by 800 μM ATR was then identified as 100% 4-MUP release and the fluorescence induced by the treatment of liposomes by another product or another dose was calculated as a percentage of ATR-induced 4-MUP release."}, "[9]": {"test_system": "RAW264.7 cells", "assay_type": "cell-based, mouse"}, "[10]": {"settings": "co-administration of RIT with NFV in human subjects (Raines et al.); cited from earlier work"}, "[11]": {"test_system": "Pseudomonas aeruginosa", "experiment": "Minimal inhibitory concentration (MIC), NCCLS guidelines"}, "[12]": {"test_system": "Enterococcus", "experiment": "Minimal inhibitory concentration (MIC), NCCLS guidelines"}, "[13]": {"test_system": "Streptococcus bovis", "experiment": "Minimal inhibitory concentration (MIC), NCCLS guidelines", "settings": "Streptococcus equinus"}, "[14]": {"test_system": "Jurkat T cells", "experiment": "Apoptosis by selective PTPC agonists (ATR, STS, PK11195) in Jurkat T cells"}},
  "note": "Like-named read-outs stand apart in the source and are kept apart here.",
  "data": [
    {"smiles": "Cc1c(O)cccc1C(=O)N[C@@H](CSc1ccccc1)[C@H](O)CN1C[C@H]2CCCC[C@H]2C[C@H]1C(=O)NC(C)(C)C", "note": "[NFV, nelfinavir]", "values": [
      {"measurement": "concentration at 6 h", "setting": "[1]; BALB/C, NFV alone, 125 mg/kg or 250 mg/kg every 8 hours by gavage, BALB/C mice, read-out: NFV plasma drug concentration 6 hours after dosing", "value": "< 2.5", "unit": "ng/mL"},
      {"measurement": "Cmax", "setting": "[1]; pharmacokinetic studies in mice (data not shown)", "value": "~8", "unit": "µM"},
      {"measurement": "Levels of NFV in brain tissue", "setting": "[2]", "value": "986 μg/gm of brain tissue"},
      {"measurement": "concentration at 8 h", "setting": "[2]; read-out: Levels of NFV in brain tissue", "value": 682000, "unit": "ng/g"},
      {"measurement": "MIC", "setting": "[3]", "value": "> 10", "unit": "µM"},
      {"measurement": "Procaspase 8 cleavage and activity, and Bid cleavage vs vehicle control cells", "setting": "[4]; NFV pretreated, CH-11", "value": "similar"},
      {"measurement": "ΔΨm (loss of DiOC6 retention), cytochrome c release, caspase 9, and caspase 3 cleavage and activity", "setting": "[4]; NFV pretreatment, CH-11", "value": "reduced"},
      {"measurement": "Apoptosis (Annexin positivity) after CH-11 anti-CD95 antibody", "setting": "[4]; NFV pretreatment, varying concentrations", "value": "dose-dependent reduction in apoptosis"},
      {"measurement": "ΔΨm loss", "setting": "[5]", "value": "inhibited"},
      {"measurement": "Apoptosis induced by H2O2 (viability)", "setting": "[6]", "value": "inhibited in a dose responsive manner"},
      {"measurement": "Apoptosis induced by Vpr (viability)", "setting": "[6]", "value": "inhibited in a dose responsive manner"},
      {"measurement": "ATR induced fluorescence release from PTPC liposomes", "setting": "[7]", "value": "progressively inhibited"},
      {"measurement": "ATR induced release of fluorescence from ANT liposomes", "setting": "[8]", "value": "inhibited"},
      {"measurement": "Vpr induced release of fluorescence from ANT liposomes", "setting": "[8]", "value": "inhibited"},
      {"measurement": "Apoptosis induced by PA and LT", "setting": "[9]", "value": "significantly inhibited in a dose responsive manner"},
      {"measurement": "Levels of NFV compared to NFV alone", "setting": "[10]", "value": "significantly increased"},
      {"measurement": "MIC", "setting": "[11]", "value": "> 10", "unit": "µM"},
      {"measurement": "MIC", "setting": "[12]", "value": "> 10", "unit": "µM"},
      {"measurement": "MIC", "setting": "[13]", "value": "> 10", "unit": "µM"},
      {"measurement": "PK11195 induced apoptosis, ΔΨm, cytochrome c release, caspase 9, caspase 3 and PARP cleavage", "setting": "[14]; PBR agonist PK11195, NFV pretreated", "value": "not altered"},
      {"measurement": "STS induced apoptosis, ΔΨm, cytochrome c release, caspase 9, caspase 3 and PARP cleavage", "setting": "[14]; VDAC agonist STS, NFV pretreated", "value": "not altered"}
    ]},
    {"smiles": "CC(C)c1nc(CN(C)C(=O)N[C@H](C(=O)N[C@@H](Cc2ccccc2)C[C@H](O)[C@H](Cc2ccccc2)NC(=O)OCc2cncs2)C(C)C)cs1", "note": "[RIT, ritonavir]", "values": [
      {"measurement": "RIT levels in brain tissue", "setting": "[2]", "value": "32 μg/gm of brain tissue"},
      {"measurement": "concentration at 8 h", "setting": "[2]; RIT levels in brain tissue", "value": 38000, "unit": "ng/g"}
    ]}
  ]
}
